{"source": "patent US10919934B2", "about": "“Compositions and methods for managing respiratory conditions” (Emory University, priority 2017, dated 2021)", "molecules": {"B1": {"name": "claudin-5 shRNA1: lentiviral short hairpin RNA targeting claudin-5, 616-624, SEQ ID NO: 27/28 (nucleic acid)", "chain 1": "CCCCCCAACGGCGATTACGACAATTCAAGAGATTGTCGTAATCGCCGTTGGTTTTTGG", "chain 2": "CCAAAAACCAACGGCGATTACGACAATCTCTTGAATTGTCGTAATCGCCGTTGGGGGG"}, "B2": {"name": "shRNA2: lentiviral short hairpin RNA targeting claudin-5, 1594-1612, SEQ ID NO: 29/30 (nucleic acid)", "chain 1": "CCCCCCACCAAACTGCCGCTAACTTCAAGAGAGTTAGCGGCAGTTTGGTGGTTTTTGG", "chain 2": "CCAAAAACCACCAAACTGCCGCTAACTCTCTTGAAGTTAGCGGCAGTTTGGTGGGGGG"}}, "key": {"alcohol-exposed AECs [1]": {"system": "alcohol-exposed AECs", "test": "Transepithelial resistance (TER), alcohol-exposed AECs", "format": "cell-based, rat", "conditions": "10 mM peptide, 16 h (overnight); alcohol-exposed AECs on Transwell", "method": "(§1) AECs isolated from control were cultured on Transwell permeable supports for 5 days and then either untreated (un), or incubated with 10 mM control peptide (con; Ac-LYQY(SEQ ID NO:35)-NH2) or a claudin-5 extracellular domain mimetic peptide (C5; Ac-EFYDP(SEQ ID NO:1)-NH2) for 16 h. The cells were examined for barrier function by transepithelial resistance (TER).\n(§2) The difference between AECs isolated from control- and alcohol-fed animals (alcohol-exposed AECs) was evaluated using two different measures of barrier function: transepithelial resistance (TER) and paracellular flux to soluble tracer molecules. […] Thus, alcohol exposure has a deleterious effect on AEC tight junctions."}, "control AECs [2]": {"system": "control AECs", "test": "Transepithelial resistance (TER), control AECs", "format": "cell-based, rat", "conditions": "10 mM peptide, 16 h", "method": "as §1, §2"}, "claudin-5 [3]": {"target": "T1, claudin-5 (Rattus norvegicus, UniProt Q9JKD6)", "T1 construct": "endogenous in cells; host or cells: primary alveolar epithelial cells (AECs) from alcohol-fed rats", "T1 sequence (Q9JKD6 1-218)": "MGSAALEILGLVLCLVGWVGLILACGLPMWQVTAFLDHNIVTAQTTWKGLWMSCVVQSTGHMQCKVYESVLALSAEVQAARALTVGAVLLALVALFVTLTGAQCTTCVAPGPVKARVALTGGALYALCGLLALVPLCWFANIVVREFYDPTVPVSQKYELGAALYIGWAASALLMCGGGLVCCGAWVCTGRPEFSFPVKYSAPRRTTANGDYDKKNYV", "test": "Immunoblot for claudin-5, alcohol-exposed AECs", "format": "cell-based", "conditions": "peptide-treated cells from alcohol-fed rats; P=0.042 versus untreated, P=0.016 versus control"}, "claudin-1": {"system": "claudin-1", "test": "Claudin-1 content, alcohol-exposed AECs", "format": "cell-based, rat", "conditions": "peptide-treated alcohol-exposed AECs", "from_the_text": "By contrast, control AECs were unaffected by the Ac-EFYDP(SEQ ID NO: 1)-NH2 peptide (FIG. 7A, C, E). A control peptide, Ac-LYQY (SEQ ID NO:35)-NH2, had no effect on AEC barrier function in either control or alcohol-exposed cells. The ability of Ac-EFYDP(SEQ ID NO: 1)-NH2 to improve the barrier function of alcohol-exposed AECs correlated with a decrease in tight-junction spike formation (FIG. 7G) and a specific decrease in total claudin-5 content (FIG. 7I). Claudin-18 and ZO-1 were unaffected (FIG. 7I) as was claudin-1."}, "control AECs [4]": {"system": "control AECs", "test": "Paracellular flux of tracers, control AECs", "format": "cell-based, rat", "conditions": "10 mM peptide, 16 h", "method": "as §2"}, "alcohol-exposed AECs [5]": {"system": "alcohol-exposed AECs", "test": "Quantification of % cells with 3 or more tight-junction spikes, alcohol-exposed AECs", "format": "cell-based, rat", "conditions": "for tight junction spikes versus control shRNA: alcohol exposed AECs transduced with lentiviral shRNA", "method": "Morphologic disruption of tight junctions was not restricted to claudin-18, as claudin-5 and ZO-1 were also impaired in YFP-claudin-5-transduced AECs. To determine whether ZO-1 disruption was specifically linked to increased claudin-5, the effect of increased YFP-claudin-3 on ZO-1 localization by AECs was examined. […] In a complementary experiment, it was determined whether the ability of alcohol to induce formation of tight-junction spikes was antagonized by depleting claudin-5 using shRNA. […] Thus, claudin-5 was […] to enhance formation of tight-junction spikes.\n(§3) To further confirm that spikes were sites of active claudin vesicle formation and fusion, the effects of the dynamin inhibitor Dynasore14 was examined on spike formation by alcohol-exposed AECs."}, "alcohol-exposed AECs [6]": {"system": "alcohol-exposed AECs", "test": "Paracellular flux of tracers, alcohol-exposed AECs", "format": "cell-based, rat", "conditions": "10 mM peptide, 16 h", "method": "as §2"}, "claudin-18": {"target": "T2, claudin-18 (Rattus norvegicus, UniProt Q5I0E5)", "T2 construct": "endogenous in cells; host or cells: primary alveolar epithelial cells (AECs) from alcohol-fed rats", "T2 sequence (Q5I0E5 1-261)": "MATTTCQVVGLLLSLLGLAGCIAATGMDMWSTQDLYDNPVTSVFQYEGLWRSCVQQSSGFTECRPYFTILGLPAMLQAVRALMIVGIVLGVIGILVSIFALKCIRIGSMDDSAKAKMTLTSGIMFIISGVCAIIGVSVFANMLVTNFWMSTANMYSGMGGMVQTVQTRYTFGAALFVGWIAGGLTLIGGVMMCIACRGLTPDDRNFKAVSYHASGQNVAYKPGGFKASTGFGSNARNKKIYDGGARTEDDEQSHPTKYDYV", "test": "Immunoblot for claudin-18, alcohol-exposed AECs", "format": "cell-based", "conditions": "peptide-treated alcohol-exposed AECs"}, "ZO-1": {"system": "ZO-1", "test": "Immunoblot for ZO-1, alcohol-exposed AECs", "format": "cell-based, rat", "conditions": "peptide-treated alcohol-exposed AECs"}, "claudin-5 [7]": {"system": "claudin-5", "conditions": "normal AECs treated with inhibitor; cited from earlier work"}, "control AECs [8]": {"system": "control AECs", "conditions": "normal AECs treated with inhibitor; cited from earlier work"}, "control AECs [9]": {"system": "control AECs", "test": "Quantification of % cells with 3 or more tight-junction spikes, control AECs", "format": "cell-based, rat", "conditions": "Dynasore treatment", "from_the_text": "as §3"}, "alcohol-exposed AECs [10]": {"system": "alcohol-exposed AECs", "test": "Live-cell imaging of YFP-claudin-18 in alcohol-exposed AECs", "format": "cell-based, rat", "conditions": "Dynasore-treated alcohol-exposed AECs", "from_the_text": "as §3"}, "claudin-3 and claudin-4": {"system": "claudin-3 and claudin-4", "conditions": "cited from earlier work"}}, "note": "Where a SMILES comes first, the peptide text is derived from it.", "data": [{"molecule": "CC(=O)NC(CCC(=O)O)C(=O)NC(Cc1ccccc1)C(=O)NC(Cc1ccc(O)cc1)C(=O)NC(CC(=O)O)C(=O)N1CCCC1C(N)=O", "note": "(stereo not shown) [Ac-EFYDP(SEQ ID NO: 1)-NH2, Ac-EFYDP(SEQ ID NO:1)-NH2] (Ac-EFYDP-NH2; configuration not given here)", "values": [{"measurement": "TER", "setting": "alcohol-exposed AECs [1]", "value": "increase"}, {"measurement": "TER", "setting": "control AECs [2]", "value": "unaffected"}, {"measurement": "total claudin-5 content (immunoblot)", "setting": "claudin-5 [3]", "value": "significant and specific decrease"}, {"measurement": "claudin-1 content", "setting": "claudin-1", "value": "unaffected"}, {"measurement": "paracellular flux of 10 kDa Texas Red dextran", "setting": "control AECs [4]", "value": "unaffected"}, {"measurement": "paracellular flux of calcein", "setting": "control AECs [4]", "value": "unaffected"}, {"measurement": "tight-junction spike formation", "setting": "alcohol-exposed AECs [5]; peptide-treated alcohol-exposed AECs, P<0.001 versus untreated and control peptide", "value": "decrease"}, {"measurement": "paracellular flux of 10 kDa Texas Red dextran", "setting": "alcohol-exposed AECs [6]", "value": "decrease"}, {"measurement": "paracellular flux of calcein", "setting": "alcohol-exposed AECs [6]", "value": "decrease"}, {"measurement": "claudin-18 content (immunoblot)", "setting": "claudin-18", "value": "unaffected"}, {"measurement": "ZO-1 content (immunoblot)", "setting": "ZO-1", "value": "unaffected"}]}, {"molecule": "Cc1ccc2nc(NCCN)c3ncc(C)n3c2c1", "note": "[BMS-345541]", "values": [{"measurement": "claudin-5 expression", "setting": "claudin-5 [7]", "value": "increased"}, {"measurement": "formation of tight-junction spikes", "setting": "control AECs [8]", "value": "increased"}]}, {"molecule": "O=C(NN=Cc1ccc(O)c(O)c1)c1cc2ccccc2cc1O", "note": "[Dynasore, N′-(3,4-dihydroxybenzylidene)-3-hydroxy-2-naphthohydrazide]", "values": [{"measurement": "% cells containing 3 or more tight junction spikes oriented towards the nucleus", "setting": "alcohol-exposed AECs [5]; 160 μM for 4 h, cells from alcohol fed rats, P=0.002", "value": "significantly decreased"}, {"measurement": "spike formation by control cells", "setting": "control AECs [9]", "value": "did not have a significant effect"}, {"measurement": "punctate YFP-claudin-18 labelling", "setting": "alcohol-exposed AECs [10]", "value": "increase"}]}, {"molecule": "Ac-DFYNP-NH2", "values": [{"measurement": "effectiveness of D-amino acid version relative to corresponding L-amino acid version", "setting": "claudin-3 and claudin-4", "value": "10-100 fold"}]}, {"molecule": "Ac-LYQY(SEQ ID NO:35)-NH2 (Ac-LYQY-NH2) [Ac-LYQY (SEQ ID NO:35)-NH2, control peptide, reference compound]", "values": [{"measurement": "TER", "setting": "alcohol-exposed AECs [1]", "value": "no effect"}, {"measurement": "TER", "setting": "control AECs [2]", "value": "no effect"}, {"measurement": "paracellular flux of 10 kDa Texas Red dextran", "setting": "control AECs [4]", "value": "no effect"}, {"measurement": "paracellular flux of calcein", "setting": "control AECs [4]", "value": "no effect"}, {"measurement": "paracellular flux of 10 kDa Texas Red dextran", "setting": "alcohol-exposed AECs [6]", "value": "no effect"}, {"measurement": "paracellular flux of calcein", "setting": "alcohol-exposed AECs [6]", "value": "no effect"}]}, {"molecule": "B1", "values": [{"measurement": "tight junction spikes versus control shRNA", "setting": "alcohol-exposed AECs [5]", "value": "significantly fewer"}]}, {"molecule": "B2", "values": [{"measurement": "tight junction spikes versus control shRNA", "setting": "alcohol-exposed AECs [5]", "value": "trend towards decreased spikes"}]}]}
